Data set [1] addresses Muscarinic acetylcholine receptor. The data set is described as follows: Antagonist activity at mAChR in human CCRF-CEM cells assessed as inhibition of acetylcholine-induced calcium flux pretreated for 25 mins followed by acetylcholine addition measured for 90 secs by calcium-dye based assay. Format: functional, cell-based. A general note: Calcium flux is commonly read through the fluorescence of an indicator in the cells.

Data set [2] concerns the target Cytochrome P450 3A4 (Homo sapiens, UniProt P08684). The data set can be described thus: Inhibition of CYP3A4 (unknown origin). The format is ADME.
Data set [3] can be described thus: Stability in human liver microsomes assessed as parent compound remaining at 0.5 uM after 10 mins by LC-MS analysis. A general note: Microsomes from liver hold many membrane-bound enzymes, among them those of drug oxidation.
The nature of data set [4]: in vitro. The conditions noted are these: PAMPA, pH 7.4. (The PAMPA barrier holds no transporters, so it reflects passive diffusion.)
Description: Permeability of the compound at pH 7.4 after 4 hrs by PAMPA
The target in data set [5] is Cytochrome P450 2D6 (Homo sapiens, UniProt P10635).
Sequence of Cytochrome P450 2D6 (P10635 whole entry): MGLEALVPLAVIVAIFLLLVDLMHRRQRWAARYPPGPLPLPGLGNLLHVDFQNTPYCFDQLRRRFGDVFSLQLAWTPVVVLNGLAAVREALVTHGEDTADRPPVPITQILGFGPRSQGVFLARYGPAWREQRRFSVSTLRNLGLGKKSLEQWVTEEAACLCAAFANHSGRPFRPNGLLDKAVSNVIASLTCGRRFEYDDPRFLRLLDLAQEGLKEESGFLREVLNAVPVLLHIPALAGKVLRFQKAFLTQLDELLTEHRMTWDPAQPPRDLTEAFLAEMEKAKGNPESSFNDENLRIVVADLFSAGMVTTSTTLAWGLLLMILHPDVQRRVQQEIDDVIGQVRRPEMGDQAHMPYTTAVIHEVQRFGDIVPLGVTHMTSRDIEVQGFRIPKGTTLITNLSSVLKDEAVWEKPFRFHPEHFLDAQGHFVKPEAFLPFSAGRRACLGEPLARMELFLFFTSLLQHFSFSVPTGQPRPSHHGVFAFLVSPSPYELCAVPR
Description: Inhibition of recombinant human CYP2D6 expressed in insect cell microsomes using AMMC as substrate pretreated for 30 mins followed by NADPH addition measured after 45 mins by fluorescence assay
A short description of data set [6]: Stability in mouse liver microsomes assessed as parent compound remaining at 0.5 uM after 10 mins by LC-MS analysis.
Data set [7] in a line: Stability in rat liver microsomes assessed as parent compound remaining at 0.5 uM after 10 mins by LC-MS analysis.
Data set [8] has as its target T1, C-X-C chemokine receptor type 4 (Homo sapiens, UniProt P61073). The data set can be described thus: Agonist activity at CXCR4 in human CCRF-CEM cells measured for 90 secs by calcium flux assay. Format: functional, cell-based.
Data set [9] concerns the target T1, C-X-C chemokine receptor type 4. The data set is described as follows: Antagonist activity at CXCR4 in human CCRF-CEM cells assessed as inhibition of […]-induced calcium flux pretreated for 25 mins followed by […] addition measured for 90 secs by calcium-dye based assay. The format is functional, cell-based.

The source made the active and inactive calls. The rule behind the calls is not given here.

Sequence of Cytochrome P450 3A4 (P08684 whole entry): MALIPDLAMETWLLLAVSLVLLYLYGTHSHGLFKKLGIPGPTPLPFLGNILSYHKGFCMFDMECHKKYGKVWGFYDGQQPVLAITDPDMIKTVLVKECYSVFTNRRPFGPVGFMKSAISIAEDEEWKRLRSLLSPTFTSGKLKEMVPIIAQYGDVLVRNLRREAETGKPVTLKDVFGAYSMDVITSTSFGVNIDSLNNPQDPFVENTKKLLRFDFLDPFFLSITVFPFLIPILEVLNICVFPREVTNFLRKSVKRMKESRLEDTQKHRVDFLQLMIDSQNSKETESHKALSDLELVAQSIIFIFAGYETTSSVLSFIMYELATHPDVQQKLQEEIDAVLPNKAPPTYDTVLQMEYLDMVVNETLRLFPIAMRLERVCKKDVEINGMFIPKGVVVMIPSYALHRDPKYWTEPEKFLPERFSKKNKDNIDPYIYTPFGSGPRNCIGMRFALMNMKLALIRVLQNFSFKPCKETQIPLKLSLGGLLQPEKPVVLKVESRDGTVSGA
T1 sequence (P61073 whole entry): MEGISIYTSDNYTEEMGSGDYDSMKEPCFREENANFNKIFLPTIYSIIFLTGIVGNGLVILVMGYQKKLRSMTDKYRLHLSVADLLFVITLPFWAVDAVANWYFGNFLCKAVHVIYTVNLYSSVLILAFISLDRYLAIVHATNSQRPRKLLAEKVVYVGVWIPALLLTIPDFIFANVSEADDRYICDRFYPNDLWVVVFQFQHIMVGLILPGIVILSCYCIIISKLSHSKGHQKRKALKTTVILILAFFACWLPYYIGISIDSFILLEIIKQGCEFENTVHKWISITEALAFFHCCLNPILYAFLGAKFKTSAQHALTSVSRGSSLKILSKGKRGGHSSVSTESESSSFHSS

By IC50 is commonly meant the concentration needed to halve the response being measured. The term amount remaining denotes the share of the starting amount still present when the sample was taken. The term Papp denotes the rate of passage across a membrane or cell layer, normalised by area and donor concentration. Low readings indicate poor permeation, high ones ready permeation. For `c1cnc(CN(CCCN2CCNCC2)[C@H]2CCCc3cccnc32)nc1`, the IC50 is more than 17 µM in data set [1], more than 20 µM in data set [2] and more than 20 µM in [5]. For the same molecule, the fraction remaining at 10 min, 0.5 µM in data set [3] was determined as 100%; in data set [6], 78%; in [7] it was 68%. Further, the Papp at 4 h in [4] came out at 3.1 ×10⁻⁶ cm/s. In [8], the result was inactive.

Consider `c1ccc2c(c1)CN[C@H](CN(CCCN1CCNCC1)[C@H]1CCCc3cccnc31)C2`, for which the IC50 in data set [1] was more than 17 µM; in data set [2] it was more than 20 µM; in data set [9], 1.15 µM; in data set [5], 1.4 µM. For the same molecule, the fraction remaining at 10 min, 0.5 µM was 99% in data set [3], 88% in data set [6] and 88% in [7]. In data set [4], this molecule returned a Papp at 4 h of 1.6 ×10⁻⁶ cm/s. The outcome in data set [8] was inactive.

On to `c1cnc2c(c1)CCC[C@@H]2N(CCCN1CCNCC1)Cc1cc2ccccc2cn1`, for which the IC50 in [1] is 3.2 µM; in data set [2], more than 20 µM; in [9], 0.017 µM; in [5], 2.96 µM. In addition, the fraction remaining at 10 min, 0.5 µM was 66% in [3], 74% in data set [6] and 59% in data set [7]. Further, the Papp at 4 h in [4] was found to be 24.3 ×10⁻⁶ cm/s. In addition, the result in data set [8] was inactive.

Regarding `c1cnc2c(c1)CCC[C@@H]2N(CCCN1CCNCC1)Cc1nc2ccccc2[nH]1`, the values for the IC50 in data set [1], in data set [2] and in [5] were more than 17 µM, 12.7 µM and more than 20 µM, respectively. Besides, the fraction remaining at 10 min, 0.5 µM in data set [3] was 63%; in data set [6], 68%; in data set [7], 29%. Also, the Papp at 4 h in data set [4] was found to be 14.6 ×10⁻⁶ cm/s. The result in data set [8] was inactive.

For the molecule `c1ccc2c(c1)CN[C@@H](CN(CCC1CCNCC1)[C@H]1CCCc3cccnc31)C2`, the IC50 in [1] is more than 14 µM; in data set [2], more than 12 µM; in [9], 0.15 µM; in [5] it was 1.04 µM. Further, the share remaining at 10 min, 0.5 µM in data set [3] stood at 66%; in data set [6], 32%; in [7], 17%. In data set [4], this molecule came in with an apparent permeability coefficient (Papp) at 4 h of 1.9 ×10⁻⁶ cm/s. Besides, the outcome in [8] was inactive.

As for `NC(=O)N1CCN(CCCN(C[C@H]2Cc3ccccc3CN2)[C@H]2CCCc3cccnc32)CC1`, the IC50 in data set [1] is 4.98 µM; in [2], more than 20 µM; in data set [9], 0.959 µM; in [5], 4.14 µM. Moreover, the fraction remaining at 10 min, 0.5 µM in data set [3] amounted to 79%; in data set [6] it was 42%; in [7], 4%. Further, the Papp at 4 h in [4] was found to be 6.7 ×10⁻⁶ cm/s. Besides, the outcome in [8] was inactive.

As for `c1cnc2c(c1)CCC[C@@H]2N(CCCN1CCNCC1)Cc1nc2ccccc2s1`, the IC50 is more than 17 µM in data set [1], 9.4 µM in data set [2] and more than 20 µM in [5]. Besides, the fraction remaining at 10 min, 0.5 µM in data set [3] is 50%; in data set [6], 45%; in data set [7], 21%. Also, the result in [8] was inactive.

Consider `c1cnc2c(c1)CN[C@H](CN(CCCN1CCNCC1)[C@H]1CCCc3cccnc31)C2`, for which the IC50 in data set [1] is more than 17 µM; in data set [2] it was more than 20 µM; in [9] it was 2.64 µM; in data set [5] it was more than 20 µM. Moreover, the fraction remaining at 10 min, 0.5 µM in [3] stood at 100%; in data set [6], 63%; in [7], 87%. The result in data set [8] was inactive.

For the molecule `c1ccc2c(c1)CN[C@@H](CN(CC1CCNCC1)[C@H]1CCCc3cccnc31)C2`, the 50% inhibitory concentration (IC50) in data set [1] was more than 14 µM; in data set [2], more than 12 µM; in [9], 0.065 µM; in data set [5], 1.87 µM. Further, the amount remaining at 10 min, 0.5 µM is 86% in data set [3], 13% in data set [6] and 65% in [7]. Moreover, in [8], the result was inactive.

In the case of `CN1CCN(CCCN(CC2Cc3ccccc3CN2C)[C@H]2CCCc3cccnc32)CC1` (single isomer, unassigned), the half-inhibitory concentration (IC50) in data set [1] is more than 17 µM; in data set [2], more than 20 µM; in data set [9], 0.536 µM; in data set [5] it was 5.14 µM. The amount remaining at 10 min, 0.5 µM in data set [3] was 60%; in data set [6], 43%; in [7] it was 2%. The Papp at 4 h in [4] stood at 51.3 ×10⁻⁶ cm/s. Moreover, the outcome in data set [8] was inactive.

Turning to `c1ccc2c(c1)CN[C@@H](CN(CC[C@@H]1CCCNC1)[C@H]1CCCc3cccnc31)C2`, the IC50 is more than 14 µM in [1], more than 12 µM in data set [2], 0.161 µM in [9] and 0.03 µM in [5]. Besides, the fraction remaining at 10 min, 0.5 µM in data set [3] is 75%; in data set [6], 23%; in data set [7], 28%. Moreover, in data set [8], the outcome was inactive.

`CC(C)N1CCN(CCCN(C[C@H]2Cc3ccccc3CN2)[C@H]2CCCc3cccnc32)CC1`: the IC50 in [1] is more than 17 µM; in data set [2], more than 20 µM; in data set [9] it was 0.062 µM; in data set [5] it was 6.65 µM. For the same molecule, the amount remaining at 10 min, 0.5 µM in data set [3] is 46%; in data set [6], 58%; in [7], 4%. In data set [4], this molecule returned a Papp at 4 h of 34.4 ×10⁻⁶ cm/s. Further, in data set [8], the outcome was inactive.

Take `CN1CCN(CCCN(C[C@H]2Cc3ccccc3CN2)[C@H]2CCCc3cccnc32)CC1`: the IC50 in data set [1] was 6.56 µM; in data set [2], more than 20 µM; in [9] it was 0.125 µM; in [5] it was 5.6 µM. The figures for the amount remaining at 10 min, 0.5 µM in data set [3], in data set [6] and in data set [7] were 72%, 53% and 10%, respectively. The same molecule registered a Papp at 4 h in [4] of 36 ×10⁻⁶ cm/s. In addition, in [8], the result was inactive.

With `c1cnc2c(c1)CN[C@@H](CN(CCCN1CCNCC1)[C@H]1CCCc3cccnc31)C2`, the IC50 in data set [1] is more than 17 µM; in data set [2] it was more than 20 µM; in data set [9], 0.171 µM; in [5], more than 20 µM. Besides, the fraction remaining at 10 min, 0.5 µM is 79% in data set [3], 78% in [6] and 79% in [7]. This molecule also returned a Papp at 4 h in [4] of 0.9 ×10⁻⁶ cm/s. The result in [8] was inactive.

Take `NCCCCN(Cc1nc2ccccc2[nH]1)[C@H]1CCCc2cccnc21` [MAVORIXAFOR]: the IC50 in [1] is more than 17 µM. Also, the outcome in data set [8] was inactive.

For `c1ccc2c(c1)CN[C@@H](CN(CCCCN1CCNCC1)[C@H]1CCCc3cccnc31)C2`, the IC50 was more than 14 µM in data set [1], more than 12 µM in [2], 0.066 µM in [9] and 1.43 µM in [5]. Moreover, the share remaining at 10 min, 0.5 µM is 82% in data set [3], 96% in [6] and 15% in [7]. Moreover, the Papp at 4 h in data set [4] was 1.4 ×10⁻⁶ cm/s. In addition, in data set [8], the outcome was inactive.

For the origin of these results see ChEMBL document CHEMBL4145594, “Discovery of N-Alkyl Piperazine Side Chain Based CXCR4 Antagonists with Improved Drug-like Properties” (ACS Med Chem Lett, 2018).
